The source of these data is US5120647A, “Phospholipase A2 inhibitor” (Shionogi & Co., Ltd., priority 1989, dated 1992).

For one data set, the target named is T1, PLA2 from Rat Platelet (Rattus norvegicus, UniProt P14423).
T1 construct: PLA2 released from thrombin-stimulated rat platelets; from tissue; host or cells: thrombin-stimulated rat platelets (released enzyme, purified on MD 7.1 antibody-coupled Sepharose)
T1 sequence (P14423 22-146): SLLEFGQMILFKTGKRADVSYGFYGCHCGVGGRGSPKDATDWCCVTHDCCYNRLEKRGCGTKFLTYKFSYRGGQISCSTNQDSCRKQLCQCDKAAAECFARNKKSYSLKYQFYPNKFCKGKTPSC
The data set is described as follows: PLA2 inhibitory activity (release of free fatty acid from [14C]phosphatidylethanolamine). To be noted: for IC50: 37° C., 20 minutes, pH 7.4; for PLA2 inhibitory effect (in words): statement in words. The format is biochemical. How it is done: The amount of Cinatrin (μg/ml) effective for inhibiting 50% of PLA2 activity (IC50) was determined.
PLA2 inhibitory activities of Cinatrin and its derivatives were determined according to the following procedure.
PLA2 released from thrombin-stimulated rat platelets was prepared by immuno-affinity chromatography using antibody MD 7.1-coupled Sepharose (Murakami et. al, J. Biochem 104: 884-888, 1988). The standard assay conditions included, 250 μl of Tris-HCl buffer (100 mM, pH 7.4), CaCl2 (3 mM), 40 μM [^14 C]phosphatidylethanolamine and the enzyme. The reaction was started by the addition of the enzyme solution. Following incubation at 37° C. for 20 minutes, the reaction was terminated by addition of 1.25 ml of Dole's reagent (Dole, V. P. & H, Meinerts, J. Biol. Chem. 235: 2595-2599, 1960). Then released free fatty acid was extracted, and counted in Liquiflour (Du Pont-New England Nuclear) to determine the release of the radioactivity. Inhibition activity is expressed as percent of enzyme control.

A short description of a further data set: Solubility. The class given is physicochemical.
The mark [1] stands for this setting: Table 5, lactone, read-out: PLA2 Inhibitory Activity, IC50, lactone (converted).
Setting [2] is: Table 5, methyl ester, read-out: PLA2 Inhibitory Activity, IC50, methyl ester (converted).
[3] abbreviates: Table 5, seco acid (Na), read-out: PLA2 Inhibitory Activity, IC50, seco acid (Na) (converted).

Counter-ions that a name gives are not always drawn. Like-named read-outs stand apart in the source and are kept apart here.

Broadly, the IC50 is the concentration at which inhibition is half-maximal.

On to `CCCCCCCCCCC1CC2(OC(=O)C(O)C2(O)C(=O)O)C(=O)O1` (centres unmarked) [Cinatrin B, 8-(decane-1-yl)-3,4-dihydroxy-2,6-dioxo-1,7-dioxaspiro[5,5]-nonane-4-carboxylic acid], for which, at PLA2 from Rat Platelet (setting [1]), the half-inhibitory concentration (IC50) is 147 µM. Besides, the “PLA2 inhibitory effect (in words)” value at PLA2 from Rat Platelet is “particularly effective”. For the same compound, in the data set “Solubility”, the “Solubility in organic solvents” value was “soluble”.
Turning to `CCCCCCCCCCCC(O)C1C(=O)OC(C(=O)O)C1(O)C(=O)O` (centres unmarked) [Cinatrin C2, 3-hydroxy-4-(1-hydroxydodecyl)-5-oxo-tetrahydrofuran-2,3-dicarboxylic acid], the IC50 at PLA2 from Rat Platelet (setting [1]) was 801 µM. Besides, the “Solubility in organic solvents” value in “Solubility” is on record as “soluble”.
Take `CCCCCCCCCCCCC1(C(=O)O)OC(=O)C(O)C1(O)C(=O)O` (centres unmarked) [Cinatrin C1, 2-dodecyl-3,4-dihydroxy-5-oxo-tetrahydrofuran-2,3-dicarboxylic acid]: at PLA2 from Rat Platelet (Table 1, lactone form, read-out: IC50, lactone form (Inhibitory Effect on PLA2 from Rat Platelet)), the IC50 is over 801 µM. Besides, at PLA2 from Rat Platelet (setting [1]), the IC50 was over 801 µM. Besides, at PLA2 from Rat Platelet (ester or seco acid form versus lactone form), the “Change of PLA2 inhibitory activity on conversion of lactone into ester or seco acid form (in words)” value is reported as “becomes more active when it is converted into an ester or seco acid form”. For the same compound, at PLA2 from Rat Platelet, the “PLA2 inhibitory effect (in words)” value is “moderately active in its lactone form”. Moreover, in the data set “Solubility”, the “Solubility in organic solvents” value is recorded as “soluble” and the Solubility in water entry is on record as “slightly soluble”.
`CCCCCCCCCCCCC1(C(=O)OC)OC(=O)C(O)C1(O)C(=O)OC` (centres unmarked) [Cinatrin C1 methyl ester]: on PLA2 from Rat Platelet (setting [2]), the IC50 was 142 µM.
For the compound `C=CCCCCCCCCC(O)CC(O)(C(=O)O)C(O)(C(=O)O)C(O)C(=O)O` (centres unmarked) [Cinatrin A seco acid (Na salt)], the IC50 on PLA2 from Rat Platelet (setting [3]) was 138 µM.
For `CCCCCCCCCCCCC1(O)C(=O)OC(C(=O)O)C1(O)C(=O)O` (centres unmarked) [Cinatrin C3, 4-dodecyl-3,4-dihydroxy-5-oxo-tetrahydrofuran-2,3-dicarboxylic acid], the half-maximal inhibitory concentration (IC50) on PLA2 from Rat Platelet (setting [1]) is 78.8 µM. The “PLA2 inhibitory effect (in words)” value on PLA2 from Rat Platelet is recorded as “particularly effective”. Besides, in “Solubility”, the “Solubility in organic solvents” value is given as “soluble”.
Consider `C=CCCCCCCCCC1CC2(OC(=O)C(O)C2(O)C(=O)OC)C(=O)O1` (centres unmarked) [Cinatrin A methyl ester], for which, at PLA2 from Rat Platelet (setting [2]), the IC50 was 216 µM.
`CCCCCCCCCCCCC(O)(C(=O)O)C(O)(C(=O)O)C(O)C(=O)O` (centres unmarked) [Cinatrin C1 seco acid (Na salt)]: the concentration for half-maximal inhibition (IC50) on PLA2 from Rat Platelet (setting [3]) was 70.1 µM.
As for `CCCCCCCCCCCC(O)C1C(=O)OC(C(=O)OC)C1(O)C(=O)OC` (centres unmarked) [Cinatrin C2 methyl ester], the IC50 on PLA2 from Rat Platelet (setting [2]) was 745 µM.
As for `CCCCCCCCCCC(O)CC(O)(C(=O)O)C(O)(C(=O)O)C(O)C(=O)O` (centres unmarked) [Cinatrin B seco acid (Na salt)], the concentration for half-maximal inhibition (IC50) on PLA2 from Rat Platelet (setting [3]) is 75.7 µM.
On to `C=CCCCCCCCCC1CC2(OC(=O)C(O)C2(O)C(=O)O)C(=O)O1` (centres unmarked) [Cinatrin A, 8-(dec-9-ene-1-yl)-3,4-dihydroxy-2,6-dioxo-1,7-dioxaspiro [5,5]-nonane-4-carboxylic acid], for which the half-inhibitory concentration (IC50) at PLA2 from Rat Platelet (setting [1]) is 316 µM. In addition, in the data set “Solubility”, the “Solubility in organic solvents” value is on record as “soluble” and the Solubility in water result was “soluble”.
Consider `CCCCCCCCCCCCC1(O)C(=O)OC(C(=O)OC)C1(O)C(=O)OC` (centres unmarked) [Cinatrin C3 methyl ester], for which, on PLA2 from Rat Platelet (setting [2]), the IC50 is 133 µM.
Turning to `CCCCCCCCCCCC(O)C(C(=O)O)C(O)(C(=O)O)C(O)C(=O)O` (centres unmarked) [Cinatrin C2 seco acid (Na salt)], on PLA2 from Rat Platelet (setting [3]), the 50% inhibitory concentration (IC50) was 44.6 µM.
With `CCCCCCCCCCC1CC2(OC(=O)C(O)C2(O)C(=O)OC)C(=O)O1` (centres unmarked) [Cinatrin B methyl ester], the 50% inhibitory concentration (IC50) at PLA2 from Rat Platelet (setting [2]) is 215 µM.
